Experimental data from ChEMBL document CHEMBL5291721, “A preclinical secondary pharmacology resource illuminates target-adverse drug reaction associations of marketed drugs” (Nat Commun, 2023).

How the values were obtained:
[1] = biological target: T1, Muscarinic acetylcholine receptor M1 (Homo sapiens, UniProt P11229); format: functional, cell-based
T1 sequence (P11229 whole entry): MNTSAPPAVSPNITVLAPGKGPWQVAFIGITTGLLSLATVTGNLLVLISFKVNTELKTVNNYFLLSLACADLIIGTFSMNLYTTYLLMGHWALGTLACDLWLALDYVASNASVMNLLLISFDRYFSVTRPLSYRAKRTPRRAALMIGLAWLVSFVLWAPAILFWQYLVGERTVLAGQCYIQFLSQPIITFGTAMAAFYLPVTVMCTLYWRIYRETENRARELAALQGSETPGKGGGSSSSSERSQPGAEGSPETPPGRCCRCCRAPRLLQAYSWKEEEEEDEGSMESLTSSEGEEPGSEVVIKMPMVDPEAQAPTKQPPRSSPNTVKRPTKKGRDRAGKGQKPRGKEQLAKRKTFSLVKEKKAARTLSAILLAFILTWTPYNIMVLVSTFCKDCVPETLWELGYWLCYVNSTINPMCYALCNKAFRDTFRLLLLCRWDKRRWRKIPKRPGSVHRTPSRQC

Glucocorticoid receptor = biological target: T2, Glucocorticoid receptor (Homo sapiens, UniProt P04150); format: functional
T2 sequence (P04150 whole entry): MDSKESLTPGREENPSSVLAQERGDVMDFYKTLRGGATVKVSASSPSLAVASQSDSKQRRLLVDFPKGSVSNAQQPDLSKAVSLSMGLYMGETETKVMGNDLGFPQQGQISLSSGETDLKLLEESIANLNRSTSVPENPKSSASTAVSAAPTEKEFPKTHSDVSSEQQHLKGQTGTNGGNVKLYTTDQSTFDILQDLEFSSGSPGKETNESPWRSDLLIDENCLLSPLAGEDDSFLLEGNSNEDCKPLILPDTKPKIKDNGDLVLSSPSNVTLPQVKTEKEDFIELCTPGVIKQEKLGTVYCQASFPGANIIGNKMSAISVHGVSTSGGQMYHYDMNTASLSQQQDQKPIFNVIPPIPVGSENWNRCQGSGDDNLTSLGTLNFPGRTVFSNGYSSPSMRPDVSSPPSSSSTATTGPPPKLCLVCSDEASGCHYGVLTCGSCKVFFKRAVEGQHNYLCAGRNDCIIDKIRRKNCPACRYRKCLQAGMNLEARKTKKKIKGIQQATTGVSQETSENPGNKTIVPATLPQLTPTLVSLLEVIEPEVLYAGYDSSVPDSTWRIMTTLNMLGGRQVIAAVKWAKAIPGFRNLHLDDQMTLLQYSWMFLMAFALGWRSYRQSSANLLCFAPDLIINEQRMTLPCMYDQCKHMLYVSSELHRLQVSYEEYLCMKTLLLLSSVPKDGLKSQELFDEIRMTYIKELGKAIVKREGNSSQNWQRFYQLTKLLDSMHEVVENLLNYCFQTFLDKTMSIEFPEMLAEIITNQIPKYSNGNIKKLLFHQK

[2] = biological target: T3, Muscarinic acetylcholine receptor M2 (Homo sapiens, UniProt P08172)
T3 sequence (P08172 whole entry): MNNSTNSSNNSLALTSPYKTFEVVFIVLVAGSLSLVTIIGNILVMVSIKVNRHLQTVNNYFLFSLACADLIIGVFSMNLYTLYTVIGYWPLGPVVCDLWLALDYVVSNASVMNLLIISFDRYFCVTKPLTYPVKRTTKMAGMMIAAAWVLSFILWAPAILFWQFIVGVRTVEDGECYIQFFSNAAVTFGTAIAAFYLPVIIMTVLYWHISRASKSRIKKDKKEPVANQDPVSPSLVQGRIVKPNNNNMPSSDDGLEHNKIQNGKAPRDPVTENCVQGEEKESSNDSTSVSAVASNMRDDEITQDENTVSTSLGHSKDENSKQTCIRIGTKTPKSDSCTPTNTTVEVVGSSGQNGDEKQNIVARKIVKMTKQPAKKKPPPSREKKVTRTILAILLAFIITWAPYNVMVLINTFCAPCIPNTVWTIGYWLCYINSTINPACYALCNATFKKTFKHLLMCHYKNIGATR

D(1A) dopamine receptor [3] = biological target: T4, D(1A) dopamine receptor (Homo sapiens, UniProt P21728)
D(1A) dopamine receptor [4] = biological target: T4, D(1A) dopamine receptor; remark: listed apart in the source
D(3) dopamine receptor = D(3) dopamine receptor (Homo sapiens, UniProt P35462)
Estrogen receptor = biological target: T5, Estrogen receptor (Homo sapiens, UniProt P03372)
T5 sequence (P03372 whole entry): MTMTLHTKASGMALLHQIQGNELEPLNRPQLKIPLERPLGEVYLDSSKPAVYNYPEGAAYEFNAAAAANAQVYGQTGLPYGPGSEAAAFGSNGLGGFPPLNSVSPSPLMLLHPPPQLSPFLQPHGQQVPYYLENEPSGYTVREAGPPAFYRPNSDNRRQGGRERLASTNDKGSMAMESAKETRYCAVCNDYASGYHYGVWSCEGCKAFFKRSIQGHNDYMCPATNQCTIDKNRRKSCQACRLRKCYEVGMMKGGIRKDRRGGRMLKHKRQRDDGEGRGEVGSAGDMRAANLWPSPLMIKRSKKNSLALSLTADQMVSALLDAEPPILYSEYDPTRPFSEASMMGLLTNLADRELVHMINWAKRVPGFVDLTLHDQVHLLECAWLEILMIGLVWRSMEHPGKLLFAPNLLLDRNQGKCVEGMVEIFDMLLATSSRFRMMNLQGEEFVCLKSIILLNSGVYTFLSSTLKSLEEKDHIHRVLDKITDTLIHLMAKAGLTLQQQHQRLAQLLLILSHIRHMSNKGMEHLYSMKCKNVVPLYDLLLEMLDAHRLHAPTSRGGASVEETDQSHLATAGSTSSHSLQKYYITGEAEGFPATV

[5] = biological target: 5-hydroxytryptamine receptor 2B (Homo sapiens, UniProt P41595); format: functional, cell-based
[6] = biological target: T6, Prostaglandin G/H synthase 1 (Homo sapiens, UniProt P23219); format: functional
[7] = biological target: T6, Prostaglandin G/H synthase 1; format: functional; remark: listed apart in the source
[8] = biological target: Sodium-dependent noradrenaline transporter (Homo sapiens, UniProt P23975)
[9] = biological target: Sodium-dependent dopamine transporter (Homo sapiens, UniProt Q01959)
Also: assay procedure not described here.

T6 sequence (P23219 whole entry): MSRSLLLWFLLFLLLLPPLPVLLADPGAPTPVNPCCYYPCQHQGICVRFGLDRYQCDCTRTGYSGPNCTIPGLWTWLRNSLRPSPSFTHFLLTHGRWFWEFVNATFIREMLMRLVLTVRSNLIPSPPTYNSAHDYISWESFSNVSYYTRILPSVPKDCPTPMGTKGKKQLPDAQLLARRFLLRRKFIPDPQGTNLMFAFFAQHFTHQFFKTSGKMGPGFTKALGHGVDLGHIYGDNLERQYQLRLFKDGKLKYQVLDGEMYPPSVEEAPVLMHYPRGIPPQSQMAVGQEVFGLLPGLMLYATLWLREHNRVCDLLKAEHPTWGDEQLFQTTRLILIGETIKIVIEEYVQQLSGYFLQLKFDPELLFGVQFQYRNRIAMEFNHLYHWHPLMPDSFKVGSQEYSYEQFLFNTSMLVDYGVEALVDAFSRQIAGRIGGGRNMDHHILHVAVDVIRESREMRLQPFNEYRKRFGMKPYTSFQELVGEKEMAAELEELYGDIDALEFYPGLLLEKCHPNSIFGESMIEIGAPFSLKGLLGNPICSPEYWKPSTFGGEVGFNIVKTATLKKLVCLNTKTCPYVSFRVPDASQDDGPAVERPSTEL
T4 sequence (P21728 whole entry): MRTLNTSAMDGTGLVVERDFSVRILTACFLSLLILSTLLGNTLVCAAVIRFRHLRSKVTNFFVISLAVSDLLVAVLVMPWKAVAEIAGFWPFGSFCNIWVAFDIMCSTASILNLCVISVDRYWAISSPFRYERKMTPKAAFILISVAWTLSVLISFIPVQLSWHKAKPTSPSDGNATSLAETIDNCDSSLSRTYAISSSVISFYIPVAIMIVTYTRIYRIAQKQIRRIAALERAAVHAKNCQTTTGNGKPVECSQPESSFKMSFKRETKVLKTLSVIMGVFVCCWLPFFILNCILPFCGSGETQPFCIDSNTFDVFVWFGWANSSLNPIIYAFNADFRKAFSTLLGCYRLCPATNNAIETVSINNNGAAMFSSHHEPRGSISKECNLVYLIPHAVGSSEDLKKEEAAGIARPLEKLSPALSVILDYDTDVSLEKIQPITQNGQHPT
Sequence of Sodium-dependent noradrenaline transporter (P23975 whole entry): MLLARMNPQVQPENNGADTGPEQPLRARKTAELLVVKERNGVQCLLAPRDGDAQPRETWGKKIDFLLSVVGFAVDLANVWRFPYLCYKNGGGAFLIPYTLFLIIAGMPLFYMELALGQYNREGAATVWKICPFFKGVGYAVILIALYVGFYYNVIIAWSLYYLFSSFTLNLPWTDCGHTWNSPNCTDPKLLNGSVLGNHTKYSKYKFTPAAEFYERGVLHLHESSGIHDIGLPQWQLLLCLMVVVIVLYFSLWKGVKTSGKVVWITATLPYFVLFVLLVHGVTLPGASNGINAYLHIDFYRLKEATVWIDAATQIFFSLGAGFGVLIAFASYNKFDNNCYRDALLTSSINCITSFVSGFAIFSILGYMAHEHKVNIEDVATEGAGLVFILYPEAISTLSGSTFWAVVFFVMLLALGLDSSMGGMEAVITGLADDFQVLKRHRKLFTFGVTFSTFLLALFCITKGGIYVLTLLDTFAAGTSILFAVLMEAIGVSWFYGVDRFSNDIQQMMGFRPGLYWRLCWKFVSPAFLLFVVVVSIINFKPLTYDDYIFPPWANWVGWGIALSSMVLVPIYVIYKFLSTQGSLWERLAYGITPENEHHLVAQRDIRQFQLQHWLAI
Sequence of D(3) dopamine receptor (P35462 whole entry): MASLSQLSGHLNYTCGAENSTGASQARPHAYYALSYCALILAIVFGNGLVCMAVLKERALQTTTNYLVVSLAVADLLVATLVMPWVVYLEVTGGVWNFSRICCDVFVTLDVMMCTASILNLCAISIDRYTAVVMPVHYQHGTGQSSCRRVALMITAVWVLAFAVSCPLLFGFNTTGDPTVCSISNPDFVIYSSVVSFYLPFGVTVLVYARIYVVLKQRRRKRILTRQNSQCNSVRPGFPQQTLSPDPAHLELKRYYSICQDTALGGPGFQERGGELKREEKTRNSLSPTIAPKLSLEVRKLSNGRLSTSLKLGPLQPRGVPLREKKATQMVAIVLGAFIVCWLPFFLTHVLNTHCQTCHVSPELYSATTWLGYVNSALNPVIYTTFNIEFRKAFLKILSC
Sequence of 5-hydroxytryptamine receptor 2B (P41595 whole entry): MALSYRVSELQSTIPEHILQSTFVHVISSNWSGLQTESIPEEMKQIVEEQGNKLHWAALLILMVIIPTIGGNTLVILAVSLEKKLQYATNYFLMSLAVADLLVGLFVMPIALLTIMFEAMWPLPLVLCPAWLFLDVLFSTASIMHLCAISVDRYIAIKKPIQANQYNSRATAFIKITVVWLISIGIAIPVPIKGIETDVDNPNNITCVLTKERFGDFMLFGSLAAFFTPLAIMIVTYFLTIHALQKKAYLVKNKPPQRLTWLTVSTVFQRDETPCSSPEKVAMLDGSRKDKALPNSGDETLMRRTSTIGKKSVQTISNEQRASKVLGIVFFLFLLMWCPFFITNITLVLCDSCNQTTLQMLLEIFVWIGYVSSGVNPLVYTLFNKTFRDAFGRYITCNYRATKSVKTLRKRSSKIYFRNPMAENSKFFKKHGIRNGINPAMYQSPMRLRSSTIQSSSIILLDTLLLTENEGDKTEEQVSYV
Sequence of Sodium-dependent dopamine transporter (Q01959 whole entry): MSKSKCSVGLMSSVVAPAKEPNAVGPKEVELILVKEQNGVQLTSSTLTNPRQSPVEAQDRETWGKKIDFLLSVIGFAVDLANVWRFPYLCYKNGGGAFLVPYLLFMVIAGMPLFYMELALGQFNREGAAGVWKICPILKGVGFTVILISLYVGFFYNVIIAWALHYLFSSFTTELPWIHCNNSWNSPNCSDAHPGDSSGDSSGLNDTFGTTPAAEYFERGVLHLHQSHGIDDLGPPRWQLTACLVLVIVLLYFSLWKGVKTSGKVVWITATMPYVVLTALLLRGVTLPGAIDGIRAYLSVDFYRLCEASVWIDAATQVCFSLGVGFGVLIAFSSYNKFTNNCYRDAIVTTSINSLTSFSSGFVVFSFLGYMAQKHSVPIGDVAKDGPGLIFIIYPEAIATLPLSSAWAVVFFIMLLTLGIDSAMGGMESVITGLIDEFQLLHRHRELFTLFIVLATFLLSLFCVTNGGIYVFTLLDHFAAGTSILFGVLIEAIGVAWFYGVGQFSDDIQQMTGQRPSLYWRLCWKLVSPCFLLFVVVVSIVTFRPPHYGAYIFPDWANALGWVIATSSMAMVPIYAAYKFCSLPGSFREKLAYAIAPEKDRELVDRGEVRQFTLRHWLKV

Row | AC50 [1] [µM] | AC50 (Glucocorticoid receptor) [µM] | AC50 [2] [µM] | AC50 (D(1A) dopamine receptor [3]) [µM] | AC50 (D(1A) dopamine receptor [4]) [µM] | AC50 (D(3) dopamine receptor) [µM] | AC50 (Estrogen receptor) [µM] | AC50 [5] [µM] | AC50 [6] [µM] | AC50 [7] [µM] | AC50 [8] [µM] | AC50 [9] [µM] | Compound
1 | > 30 | – | – | – | – | – | – | – | – | – | – | – | CCN(CC)C(=O)C1CN2CCc3cc(OC)c(OC)cc3C2CC1OC(C)=O (stereo not drawn) [BENZQUINAMIDE]
2 | – | > 10 | – | – | – | – | – | – | – | – | – | – | COc1cccc2c1C(=O)c1c(O)c3c(c(O)c1C2=O)C[C@@](O)(C(C)=O)C[C@@H]3O[C@H]1C[C@H](N)[C@H](O)[C@H](C)O1 [DAUNORUBICIN]
3 | – | – | > 30 | > 30 | > 30 | > 30 | > 30 | > 30 | > 30 | > 30 | > 30 | > 30 | C[n+]1ccccc1/C=N/O [PRALIDOXIME]
4 | > 30 | – | – | – | – | – | – | – | – | – | – | – | CCCOC(C(=O)OC1CCN(C)CC1)(c1ccccc1)c1ccccc1 [PROPIVERINE]
5 | – | – | > 30 | > 30 | > 30 | > 30 | > 30 | > 30 | > 30 | 11.2 | > 30 | 26.6 | COLISTIN
